Results from US20050042256A1, “Lipid blends and food products containing oleic fatty acid and omega-6 fatty acids, designed to increase the intramyocellular lipid level” (priority 2001, published 2005).

These compounds were tested on Human skeletal muscle cells (assay: IMCL (triacylglycerol) accumulation in muscle cells incubated with fatty acids). Conditions: 0.5 mM FFA salt bound to albumin, DMEM + 25 mM glucose, 24 hrs at 37° C; FIGURE 1.
Format: cell-based
Experimental: Human skeletal muscle cells were used as a model to test the effect that different fatty acids (as precursors) may have on the extent of muscle triglyceride storage.
Primary cultures were initiated from a bank of satellite cells of muscle biopsies obtained from patients free of muscle disease. Aneural muscle cultures were established in a monolayer, then they were grown in a DMEM-M-199 medium, 3:1, supplemented with 10% fetal bovine serum, 10 μg/ml insulin, 2 mM glutamine, 25 ng/ml fibroblast growth factor, and 10 ng/ml epidermal growth factor. Immediately after myoblast fusion, cells were rinsed in Hank's balanced salt solution and a medium devoid of FGF, EGF, and glutamine was added. Muscle cultures were maintained in this medium for up to 4 weeks.
Cells were incubated with DMEM+glucose (25 mM)+0.5 mM FFA salt bound to albumin (in independent experiments for each FFA), for 24 hrs at 37° C. As examples for the fatty acids used in blend 1 (promoting IMCL storage), oleate (C18:1 cis), linoleate (C18:2 cis/cis), n-6 linoleate and n-3 linoleate.
As examples for the fatty acids used in blend 2 (inhibiting IMCL storage), octanoate (C8:0), palinitate (C16:0) and stearate (C18:0).
After incubation, cell lipids were extracted according to the method of Bligh and Dyer (Can. J. Biochem Physiol 37: 911-917, 1959). To determine the IMCL content, extracts were prepared by scraping cell monolayers in a buffer consisting of 50 mM Tris, 100 mM KCl, 20 mM KF, 0.5 mM EDTA and 0.05% Lubrol PX, pH 7.9, and they were sonicated three times for 5 seconds. Homogenates were centrifuged at 11′000 g for 15 min and the resulting supernatants were collected. Total triacylglycerol (i.e. IMCL) was measured with a Cobas-Bio autoanalyzer with a GPO-Trinder kit, with triolein resuspended in the extraction buffer as a standard. The intramyocellular nature of the triglycerides was evidenced by histo-chemical staining with Sudan III in 70% ethanol.

| Compound | accumulation / synthesis of IMCL (total triacylglycerol) |
| --- | --- |
| CCCCCCCC(=O)O [octanoate, octanoate (C8:0)] | no accumulation of IMCL |
| CCCCCCCC/C=C\CCCCCCCC(=O)O [oleate, oleate (C18:1 cis)] | notably higher synthesis |
| CCCCC/C=C\C/C=C\CCCCCCCC(=O)O [linoleate, linoleate (C18:2 cis/cis)] | notably higher synthesis |
| CCCCCCCCCCCCCCCCCC(=O)O [stearate, stearate (C18:0)] | moderate synthesis |
